Results reported in patent US20150233903A1, “SOLID PHASE GLYCAN AND GLYCOPEPTIDE ANALYSIS AND MICROFLUIDIC CHIP FOR GLYCOMIC EXTRACTION, ANALYSIS AND METHODS FOR USING SAME” (THE JOHNS HOPKINS UNIVERSITY, priority 2012, published 2015).

Test system: pancreatic cancer cell line SW1990
Test: Relative quantitation of sialylated N-glycans from SW1990 cells with and without 1,3,4-O-Bu3ManNAc treatment (light/heavy p-toluidine labeling, MALDI-MS)
Assay type: cell-based
Details: for H/L: SW1990 cells treated (heavy) vs untreated (light), glycan Core+Na
Method: Proteins were immobilized to amino link beads via reductive amination. Briefly, AminoLink resin (200 μL) was loaded onto snap-cap spin-column, centrifuged at 2000 g for 1 minute. Resin was washed with 450 μL of pH 10 buffer (Sodium citrate 100 mM and sodium carbonate 50 mM) followed by centrifugation. The washing step was repeated twice. Proteins dissolved in pH 10 buffer were loaded onto prepared AminoLink resin in snap-cap spin-column in 1 mg/200 μL beads ratio. The volume was adjusted to 450 μL using pH 10 buffer. Sample-resin mixture was incubated at room temperature overnight. The mixture was centrifuged at 2000 g to remove any unbound protein. Resin was rinsed by 1×PBS buffer (Sigma-Aldrich; pH 7.4; 450 μL) three times. PBS buffer in the presence of 50 mM sodium cyanoborohydride (450 μL) was added to resin (spin-column capped during each incubation step). After a four hour incubation, supernatant was removed via centrifugation (2000 g) and 450 μL of 1 M Tris-HCl (pH 7.6) in the presence of 50 mM sodium cyanoborohydride was added to block un-reacted aldehyde sites of resin. The blocking process was terminated after 1 hour, followed by washing of resin with PBS twice, 1M […] twice and water three times.
Proteins conjugated on solid support were mixed with 450 μL of 1M p-toluidine and 40 μL of EDC at pH 4.5 adjusted using HCl. After incubation for 4 hours, beads were washed twice with 500 μL of 1M NaCl and water followed by 50 mM ammonium bicarbonate, three times for each solution, and treated with 100 units of PNGase F in 0.3 mL of 50 mM ammonium bicarbonate overnight at 37° C. to release N-glycans from proteins. Nglycans released in the supernatant were subsequently collected. The N-glycans released from glycoproteins were further purified and concentrated over Carbograph columns (Extract-Clean SPE Carbo 150 mg; Grace Division Discovery Science; Deerfield, Ill.) and eluted in 0.1% TFA 50% acetonitrile/water following the manufacturer's instruction (Grace Davison Discovery Sciences, Milwaukee, Wis.). Glycans were then dried in Savant Speed-Vac (Thermo Scientific, Asheville, N.C.).
Glycans were resuspended in 20 μL of water. Sample 1.5 μL was mixed 1.5 μL of matrix on a 384-well goals MALDI plate (Hudson Surface Technology, Fort Lee, N.J.). DHB matrix solution was prepared by dissolving 100 mg of DHB in 1 mL of a 1:1 solution of water and ACN followed by addition of 40 μL of dimethylaniline. Glycans were analyzed by Shimadzu AXIMA Resonance Mass Spectrometer (Shimadzu, Columbia, Md.) in positive mode.
It has been well established that the extent of glycan sialylation depends on sialyltransferases, the biosynthetic enzymes responsible for adding a sialic acid to an underlying galactose or GalNAc residue. […] To fill this void, in the present invention we profiled N-glycans in SW1990 treated with 1,3,4-O-Bu3ManNAc as previously described. Protein extract from 1,3,4-O-Bu3ManNAc treated SW1990 cells and untreated control cells were conjugated to solid support and labeled with isotopic p-toluidine as described above. The mass spectrometric analysis of labeled glycans identified 87 N-glycans based on accurate mass (data not shown). Sialic acid compositional assignment was determined based on the differences of heavy and light labeled glycans. Twenty one heavy and light glycan peaks were identified with a mass shift of 7 or a multiple of 7, confirming that the presence of 21 sialylated glycans (FIGS. 13A and 13B). Qualitative analysis of N-glycans from cells with and without ManNAc treatment using isotopic labeling of sialylated N-glycans with 1:1 combined samples identified and quantified 14 sialylated glycans (Table 5). Seven other sialylated Nglycans could not be quantified due to low signal to noise ratio when the two samples were combined for MS analysis.

CCCC(=O)OC1O[C@H](CO)[C@@H](OC(=O)CCC)[C@H](OC(=O)CCC)[C@@H]1NC(C)=O (stereo partly shown) [1,3,4-O—Bu3ManNAc, 1,3,4-O-Bu3ManNAc]
H/L (Fucose 0, HexNAc 2, Hexose 2, Sialic Acid 1, [M+Na] 2043.89): 1.29
H/L (Fucose 1, HexNAc 2, Hexose 2, Sialic Acid 1, [M+Na] 2189.95): 1.09
H/L (Fucose 1, HexNAc 2, Hexose 2, Sialic Acid 2, [M+Na] 2570.21): 1.02
H/L (Fucose 1, HexNAc 3, Hexose 2, Sialic Acid 1, [M+Na] 2393.04): 1.95
H/L (Fucose 1, HexNAc 3, Hexose 2, Sialic Acid 2, [M+Na] 2773.31): 1.70
H/L (Fucose 1, HexNAc 3, Hexose 3, Sialic Acid 1, [M+Na] 2555.10): 1.31
H/L (Fucose 1, HexNAc 3, Hexose 3, Sialic Acid 2, [M+Na] 2935.36): 0.98
H/L (Fucose 1, HexNAc 4, Hexose 3, Sialic Acid 1, [M+Na] 2758.19): 1.66
H/L (Fucose 2, HexNAc 2, Hexose 2, Sialic Acid 1, [M+Na] 2336.01): 1.10
H/L (Fucose 2, HexNAc 3, Hexose 2, Sialic Acid 1, [M+Na] 2539.10): 1.31
H/L (Fucose 2, HexNAc 3, Hexose 3, Sialic Acid 1, [M+Na] 2701.15): 1.03
H/L (Fucose 2, HexNAc 4, Hexose 3, Sialic Acid 1, [M+Na] 2904.25): 2.04
H/L (Fucose 3, HexNAc 3, Hexose 2, Sialic Acid 1, [M+Na] 2585.15): 1.00
H/L (Fucose 3, HexNAc 4, Hexose 3, Sialic Acid 1, [M+Na] 3050.31): 1.39
decrease in sialylated N-glycans when cells were treated (SW1990 cells, treated vs untreated): no significant decrease
number of sialylated N-glycan compositions with a significant increase in abundance (SW1990 cells, treated vs untreated, 14 sialylated glycans quantified): six
